Tested on: APOE-gene deficient mice (BALB/c.KOR/StmSlc-Apoe^shl)
Experiment: Y maze test of spacial working memory
Type: in vivo
Conditions: intake from age of 8 weeks, examined 250 days later (10-month old)
Procedure: The wild type mice used were BALB/cCrSlc and the APOE-gene deficient mice used were BALB/c.KOR/StmSlc-Apoe^shl.
The cognitive function was measured by the Y maze test (Conrad C D. et al., Brain Res. 1997; 759:76-83). Its principle is as follows. Animals placed in the center of 3 arms in the Y-shape start exploratory behavior after a while. Normal animals rarely return to the arm once explored and explore different arms in turn with the help of marks seen out of the maze. However, model animals with declined space recognition and/or memory go to the same place many times and enter the arm that the animal entered the last time again. In the Y maze test, the order of the arms that an animal entered during a certain period of time is measured and the percentage of the number of times (percent alternation) when the mouse entered all different arms in a consecutive raw of three times as an indicator of space recognition and memory.
Powder feed containing 0.1 g of MgH2 in 1 kg of MF powder feed (a product manufactured by Oriental Yeast Co., ltd.) was produced and the animals were allowed to take the feed freely. […] The control feed was feed containing 0.22 g of Mg(OH)2 per 1 kg of MF powder feed. The feed was changed with fresh feed five times a week.
The control mice were placed for 1 hour in a chamber containing the air five times a week.

Structure (SMILES) | spacial working memory (percent alternation, Y maze, FIG. 4)
[H-].[H-].[Mg+2] [MgH2, magnesium hydride] | the decline of spacial working memory was decreased
[HH] [hydrogen gas] | the decline of spacial working memory was decreased

From US20200196637A1, “COMPOSITION FOR PREVENTION OR TREATMENT OF MILD COGNITIVE […] […] […] AS ACTIVE INGREDIENT” (priority 2016, published 2020)
